Reference: patent US20260035696A1, “COMBINATION TREATMENT FOR CANCER” (THE UNIVERSITY OF CHICAGO, priority 2022, published 2026)

Tested on: IκBα phosphorylation and nuclear RELA in 3×KD BM-MDSCs
Assay: Immunoblot of NF-κB signaling in 3×KD BM-MDSCs co-cultured with LPS
Format: cell-based, mouse
Conditions: 3×KD (Adrb2, Metrnl, Smpdl3b) BM-MDSCs, LPS 5 min
Text: FIGS. 15A-15I show YTHDF2 degrades Adrb2, Metrnl, and Smpdl3b transcripts and thereby activates NF-κB signaling in MDSCs. (FIG. 15A) MDSCs were sorted from MC38 tumors in WT, WT+IR, Ythdf2-cKO, Ythdf2-cKO+IR mice and subjected to qPCR analysis of Adrb2, Metrnl and Smpdl3b mRNA level. (FIG. 15B) Graphs showing enrichment of Adrb2, Metrnl and Smpdl3b mRNA in the YTHDF2-immunoprecipitated RNA fraction of bone marrow-derived MDSCs, determined by RIP-qPCR. (FIG. 15C) MDSCs were sorted from bone marrow-derived cells from WT and Ythdf2-cKO mice and were treated with actinomycin D. mRNA was collected at indicated time points after treatment and mRNA levels of Adrb2, Metrnl and Smpdl3b were measured by RT-qPCR. […] Three days after IR, the number of tumor-infiltrating CD45.1^+CD11b^+Ly6C^hi cells was determined. […] The attached cells on the transwell membrane were visualized under a light microscope and quantified. […] Three days after IR, the number of tumor-infiltrating Ccr2^+CD11b^+Ly6C^hi cells was determined. […]
FIGS. 29A-29M show YTHDF2 degrades Adrb2, Metrnl, and Smpdl3b transcripts and thereby activates NF-κB signaling in MDSCs. […] P values were calculated by a nonparametric Wilcoxon-Mann-Whitney test. […] Metrnl and Smpdl3b mRNA in the YTHDF2-immunoprecipitated RNA fraction of bone marrow-derived MDSCs, determined by RIP-qPCR. […]

increase of IκBα phosphorylation and nuclear localization of RELA in knockdown MDSCs: prevented this increase
Compound: Cc1ccc(S(=O)(=O)/C=C/C#N)cc1 [BAY 11-7082]
